The target of one assay is α-thrombin (Homo sapiens, UniProt P00734). The assay can be described thus: Amidolytic thrombin assay (inhibition constant Ki). The format is biochemical. The settings on record: chromogenic substrate Pefachrome t-PA, HBSA pH 7.5; slow-binding (kon/koff) or Dixon analysis. As for the experimental part: The ability of the compounds of the present invention to act as inhibitors of thrombin catalytic activity in comparison to Hirulog-1 (compound 25) was assessed by determining their inhibition constant, Ki.
Enzyme activity was determined using the chromogenic substrate Pefachrome t-PA (CH3 SO2 -D-hexahydrotyrosine-glycyl-L-arginine-p-nitroaniline, obtained from Pentapharm Ltd.). The substrate was reconstituted in deionized water prior to use.
Ki values were determined for test compounds using the following methodologies:
The assay was conducted by combining in appropriate wells of a Corning microtiter plate, 50 μL of HBSA, 50 μL of the test compound at a specified concentration diluted in HBSA (or HBSA alone for Vo(uninhibited velocity) measurement), and 50 μL of the chromogenic substrate diluted in HBSA. At time zero, 50 μL of α-thrombin diluted in HBSA, was added to the wells yielding a final concentration of 0.25 nM in a total volume of 200 μL. Velocities of Pefachrome-tPA substrate hydrolysis which occurred over a 40 minute time period was measured by the change in absorbance at 405 nm using a Thermo Max® Kinetic Microplate Reader. […] The linear relationship between kobs and inhibitor concentration is indicative of a competitive, one step mechanism and was used to calculate kon and koff which yielded a value for Ki after taking into consideration the concentration and Km (38.5 μM) of the substrate in the assay.
The initial velocity of Pefachrome t-PA hydrolysis was measured by the change in absorbance at 405 nm using a Thermo Max® Kinetic Microplate Reader over a 2 minute period in which less than 5% of the added substrate was utilized. The relationship between the ratio of the inhibited steady-state velocity (Vs) and the uninhibited velocity (Vo) to the concentration of inhibitor [It ], was analyzed using Equation 1 developed by Morrison , J. F., Biochim. Biophys. Acta, 185:269 (1969) for inhibitors which deplete a significant amount of the total enzyme (Et) over the course of the assay (designated tight binding inhibitors):
Vs/Vo={([Et ]-[It ]-Ki*)+[([It ]+Ki*-[Et ])^2
Ki* was determined by fitting Vs/Vo verses [I] using Equation 1 by non-linear regression analysis.
The best fit of the data for both compounds was to the equation describing competitive inhibition.

The next assay deals with thrombin (Homo sapiens, UniProt P00734). Conditions: cited from earlier work.
The target of assay [1] is microsomal aminopeptidase. Conditions: Ocain et al.; cited from earlier work.
The next assay concerns the target arginyl aminopeptidase. Conditions: Ocain et al.; cited from earlier work.
The target of another assay is cytosol aminopeptidase. The settings on record: Ocain et al.; cited from earlier work.

≈ marks a conversion by molar mass, not a printed value. Residues, ends and D or L forms follow the SMILES beside them. *: point of attachment. Pentanoyl(2-Pr) = CCCC(CCC)C(=O)*

Compound `CCCC(CCC)C(=O)N[C@@H](CC(=O)O)C(=O)N1CCC[C@H]1C(=O)N[C@@H](CCCNC(=N)N)C(=O)C(=O)NCC(=O)NCC(=O)NCC(=O)NCC(=O)NCC(=O)N[C@@H](CC(N)=O)C(=O)NCC(=O)N[C@@H](CC(=O)O)C(=O)N[C@@H](Cc1ccccc1)C(=O)N[C@@H](CCC(=O)O)C(=O)N[C@@H](CCC(=O)O)C(=O)N[C@H](C(=O)N1CCC[C@H]1C(=O)N[C@@H](CCC(=O)O)C(=O)N[C@@H](CCC(=O)O)C(=O)N[C@@H](Cc1ccc(O)cc1)C(=O)N[C@@H](CC(C)C)C(=O)O)[C@@H](C)CC` [Compound 10] came in with an inhibition constant Ki at α-thrombin of 0.04 nM.
On the same count and under the same terms, next, `CCCC(CCC)C(=O)N[C@@H](CC(=O)O)C(=O)N1CCC[C@H]1C(=O)N[C@@H](CCCNC(=N)N)C(=O)N1CCC[C@H]1C(=O)NCC(=O)NCC(=O)NCC(=O)NCC(=O)N[C@@H](CC(N)=O)C(=O)NCC(=O)N[C@@H](CC(=O)O)C(=O)N[C@@H](Cc1ccccc1)C(=O)N[C@@H](CCC(=O)O)C(=O)N[C@@H](CCC(=O)O)C(=O)N[C@H](C(=O)N1CCC[C@H]1C(=O)N[C@@H](CCC(=O)O)C(=O)N[C@@H](Cc1ccc(O)cc1)C(=O)N[C@@H](CC(C)C)C(=O)O)[C@@H](C)CC` [Compound 9] ({Pentanoyl(2-Pr)}-DPRPGGGGNGDFEEIPEYL-OH): 46.1 nM.
For “N-acetyl--D--Phe--Pro Arg--[.psi.C(=O)--CH2 ]--CH2 --CH2 --CH2 -(C=O)--Gln--Ser--His--Asn--Asp--Gly--Asp--Phe--Glu--Glu--Ile--Pro--Glu--Glu--Tyr--Leu--Gln”, the Ki on thrombin (literature values, read-out: Ki (thrombin), reported) was 0.14 nM.
On to `NC(=O)C(=O)C(N)Cc1ccccc1` (stereo not drawn) [3-Amino-2-oxo-4-phenylbutanoic acid amide], for which the results for the Ki (in assay [1]; at arginyl aminopeptidase; at cytosol aminopeptidase) were 2500 nM, 1500 nM and 1000 nM, respectively.
The compound `CCCC(CCC)C(=O)N[C@@H](CC(=O)O)C(=O)N1CCC[C@H]1C(=O)N[C@@H](CCCNC(=N)N)C(=O)C(=O)NCC(=O)NCC(=O)NCC(=O)NCC(=O)NCC(=O)N[C@@H](CCCNC(=N)N)C(=O)NCC(=O)N[C@@H](CC(=O)O)C(=O)N[C@@H](Cc1ccccc1)C(=O)N[C@@H](CCC(=O)O)C(=O)N[C@@H](CCC(=O)O)C(=O)N[C@H](C(=O)N1CCC[C@H]1C(=O)N[C@@H](CCC(=O)O)C(=O)N[C@@H](CCC(=O)O)C(=O)N[C@@H](Cc1ccc(O)cc1)C(=O)N[C@@H](CC(C)C)C(=O)O)[C@@H](C)CC` [Compound 11] came in with a Ki at α-thrombin of 0.0078 nM.
As for `N=C(N)NCCC[C@@H]1NC(=O)[C@@H]2CCCN2C(=O)[C@@H](NC=O)CNC(=O)/C=C/[C@H](Cc2ccc(O)cc2)NC(=O)[C@@H](Cc2ccccc2)NC(=O)C1=O` [Cyclotheonamide A], the “IC50 (thrombin), reported” value at thrombin (Fusetani et al., Hagihara et al.) is 0.076 µg/mL (≈ 0.104 µM). For the same compound, the half-maximal inhibitory concentration (IC50) on thrombin (Fusetani et al., Hagihara et al., read-out: IC50 (thrombin), reported) is 99 nM.

(Values after patent publication US5656600A, “α-ketoamide derivatives as inhibitors of thrombosis” (Corvas International, Inc., priority 1993, dated 1997).)
